{
  "source": "patent US20050113318A1",
  "about": "“Combination of dehydroepiandrosterone or dehydroepiandrosterone-sulfate with a beta-agonist bronchodilator for treatment of asthma or chronic obstructive pulmonary disease” (priority 2003, published 2005)",
  "type_in_all_cases": "physicochemical",
  "key": {"[1]": {"assay": "Particle size of DHEA-S powders (laser diffraction, light microscope)", "details": "for mean particle size: spray dried, two batches", "description": "Approximately 1 g sample was passed through the jet mill, once, and approximately 2 g sample were passed through the jet mill twice. […] The resulting solution was sonicated for 3 minutes and appeared fully dispersed. The dispersed solutions were tested on a Malvern Mastersizer X with a small volume sampler (SVS) attachment. One sample of dispersed material was tested 5 times. The median particle size or D (v, 0.5) of unmilled material was 52.56 μm and the % RSD (relative standard deviation) was 7.61 for the 5 values. The D (v, 0.5) for a single pass through the jet mill was 3.90 μm and the % RSD was 1.27, and the D (v, 0.5) from a double pass through the jet mill 3.25 μm and the % RSD was 3.10.\nThe solution was spray-dried with a B-191 Mini Spray-Drier (Buchi, Flawil, Switzerland) with an inlet temperature of 55° C., outlet temperature of 40° C., at 100% aspirator, at 10% pump, nitrogen flow at 40 mbar and spray flow at 600 units. The spray-dried product was suspended in hexane and Span85 surfactant added to reduce agglomeration. The dispersions were sonicated with cooling for 3-5 minutes for complete dispersion and the dispersed solutions tested on a Malvern Mastersizer X with a Small Volume Sampler (SVS) attachment. […] Visual examination by light microscope of the dispersions of each batch confirmed that spray drying produced small respirable size particles. The mean particle size was 2.4 μm and 2.0 μm for each batch, respectively.\nSurface area is determined using five point BET analyses are performed with nitrogen as the adsorbing gas (P/Po=0.05 to 0.30) using a Micromeritics TriStar surface area analyzer. Particle size distributions are measured by laser diffraction using a Micromeritics Saturn Digisizer where the particles are suspended in mineral oil th sodium dioctyl sodium sulfosuccinate as a dispersing agent. Drug substance water content is measured by Karl Fischer titration (Schott Titroline KF). Pure water is used as the standard and all relative standard deviations for triplicates are less than 1%. Powder is added directly to the titration media."}, "[2]": {"assay": "Emitted dose studies with dry powder inhalers", "details": "for Emitted Dose: single runs", "description": "DHEA-S powder was collected in Nephele tubes and assayed by HPLC. Triplicate experiments were performed at each airflow rate for each of the three dry powder inhalers tested (Rotahaler, Diskhaler and IDL's DPI devices). A Nephele tube was fitted at one end with a glass filter (Gelman Sciences, Type A/E, […]), which in turn was connected to the airflow line to collect the emitted dose of the drug from the respective dry powder inhaler being tested. A silicone adapter, with an opening to receive the mouthpiece of the respective dry powder inhaler being tested at the other end of the Nephele tube was secured. A desired airflow, of 30, 60, or 90 L/min, was achieved through the Nephele tube. Each dry powder inhaler's mouthpiece was inserted then into the silicone rubber adapter, and the airflow was continued for about four s after which the tube was removed and an end-cap screwed onto the end of each tube. The end-cap of the tube not containing the filter was removed and 10 ml of an HPLC grade water-acetonitrile solution (1:1) added to the tube, the end-cap reattached, and the tube shaken for 1-2 minutes. The end-cap then was removed from the tube and the solution was transferred to a 10 ml plastic syringe fitted with a filter (Cameo 13N Syringe Filter, Nylon, 0.22 μm). An aliquot of the solution was directly filtered into an HPLC vial for later drug assay via HPLC. […] When the micronized DHEA-S (only vial B used), was weighed for placement into the gelatin capsule or blister, there appeared to be a few aggregates of the micronized powder. […] Table 2 summarizes the results for the Rotahaler experiments at 3 different flow rates, for the Diskhaler experiments at 3 different flow rates, and of the multi-dose experiments at 3 different flow rates."}, "[3]": {"assay": "Solid-state stability with and without lactose (DHEA formed, HPLC)", "from_the_text": "These conditions were used to stress the formulation in order to predict its long-term stability results. […] This color change is accompanied by a significant change in the chromatogram as shown in. FIG. 1. The primary degradant is DHEA. […] The materials on accelerated storage become more cohesive with time as evidenced by clumping during sample weighing for chemical analysis. […] This is a considerable disadvantage since lactose is the most commonly used inhalation excipient for dry powder formulations. Continuing with the virtually anhydrous form would mean limiting formulations to neat powder or undertaking more comprehensive safety studies to use a novel excipient."}, "[4]": {"details": "Diskhaler (2nd study), 87.8 L/min"}, "[5]": {"details": "IDL Multi-Dose (2nd study), 87.8 L/min"}},
  "note": "“And” between values parts separate entries of the source, which are not always exact repeats. Identical values can stand only once.",
  "data": [
    {"smiles": "C[C@]12CC[C@H](OS(=O)(=O)[O-])CC1=CC[C@@H]1[C@@H]2CC[C@]2(C)C(=O)CC[C@@H]12.[Na+]", "note": "[Anhydrous DHEA-S]", "values": [
      {"measurement": "median particle size D (v, 0.5)", "setting": "[1]; double pass through the jet mill", "value": 3.25, "unit": "μm"},
      {"measurement": "median particle size D (v, 0.5)", "setting": "[1]; single pass through the jet mill", "value": 3.90, "unit": "μm"},
      {"measurement": "mean particle size", "setting": "[1]; Malvern Mastersizer X", "value": "5.07±0.70 μm and 6.66±0.91 μm"},
      {"measurement": "mean particle size", "setting": "[1]; visual examination by light microscope", "value": "2.4 μm and 2.0 μm"},
      {"measurement": "median particle size D (v, 0.5)", "setting": "[1]; unmilled material, Malvern Mastersizer X", "value": 52.56, "unit": "μm"},
      {"measurement": "Emitted Dose, Average", "setting": "[2]; [4]", "value": 59.1, "unit": "%"},
      {"measurement": "Emitted Dose", "setting": "[2]; [4]", "value": "57.9% and 59.9% and 59.5%"},
      {"measurement": "Emitted Dose, Average", "setting": "[2]; Diskhaler, 30 L/min", "value": 58.6, "unit": "%"},
      {"measurement": "Emitted Dose", "setting": "[2]; Diskhaler, 30 L/min", "value": "53.8% and 53.4% and 68.7%"},
      {"measurement": "Emitted Dose, Average", "setting": "[2]; Diskhaler, 60 L/min", "value": 68.2, "unit": "%"},
      {"measurement": "Emitted Dose", "setting": "[2]; Diskhaler, 60 L/min", "value": "63.4% and 38.9% and 58.0%"},
      {"measurement": "Emitted Dose, Average", "setting": "[2]; Diskhaler, 87.8 L/min", "value": 51.3, "unit": "%"},
      {"measurement": "Emitted Dose", "setting": "[2]; Diskhaler, 87.8 L/min", "value": "65.7% and 41.6% and 46.5%"},
      {"measurement": "Emitted Dose, Average", "setting": "[2]; [5]", "value": 84.8, "unit": "%"},
      {"measurement": "Emitted Dose", "setting": "[2]; [5]", "value": "85.7% and 84.6% and 84.0%"},
      {"measurement": "Emitted Dose, Average", "setting": "[2]; IDL Multi-Dose, 30 L/min", "value": 85.4, "unit": "%"},
      {"measurement": "Emitted Dose", "setting": "[2]; IDL Multi-Dose, 30 L/min", "value": "78.9% and 88.2% and 89.2%"},
      {"measurement": "Emitted Dose, Average", "setting": "[2]; IDL Multi-Dose, 60 L/min", "value": 84.0, "unit": "%"},
      {"measurement": "Emitted Dose", "setting": "[2]; IDL Multi-Dose, 60 L/min", "value": "78.8% and 83.7% and 89.6%"},
      {"measurement": "Emitted Dose, Average", "setting": "[2]; IDL Multi-Dose, 87.8 L/min", "value": 72.6, "unit": "%"},
      {"measurement": "Emitted Dose", "setting": "[2]; IDL Multi-Dose, 87.8 L/min", "value": "71.3% and 79.0% and 67.4%"},
      {"measurement": "Emitted Dose, Average", "setting": "[2]; Rotahaler (2nd study), 87.8 L/min", "value": 31.5, "unit": "%"},
      {"measurement": "Emitted Dose, Average", "setting": "[2]; Rotahaler, 30 L/min", "value": 34.7, "unit": "%"},
      {"measurement": "Emitted Dose, Average", "setting": "[2]; Rotahaler, 60 L/min", "value": 57.3, "unit": "%"},
      {"measurement": "Emitted Dose", "setting": "[2]; Rotahaler, 60 L/min", "value": "58.1% and 68.2% and 45.7%"},
      {"measurement": "Emitted Dose, Average", "setting": "[2]; Rotahaler, 87.8 L/min", "value": 69.7, "unit": "%"},
      {"measurement": "Emitted Dose", "setting": "[2]; Rotahaler, 87.8 L/min", "value": "73.2% and 67.1% and 68.7%"},
      {"measurement": "DHEA % formed", "setting": "[3]; 50° C., 1 week", "value": 9.817, "unit": "%"},
      {"measurement": "DHEA % formed", "setting": "[3]; 50° C., 2 weeks", "value": 14.954, "unit": "%"},
      {"measurement": "DHEA % formed", "setting": "[3]; 50° C., 4 weeks", "value": 20.171, "unit": "%"},
      {"measurement": "DHEA % formed", "setting": "[3]; Control: neat, sealed vial, 25° C., 1 week", "value": 2.694, "unit": "%"},
      {"measurement": "DHEA % formed", "setting": "[3]; Control: neat, sealed vial, 25° C., 2 weeks", "value": 2.370, "unit": "%"},
      {"measurement": "DHEA % formed", "setting": "[3]; Control: neat, sealed vial, 25° C., 4 weeks", "value": 2.666, "unit": "%"},
      {"measurement": "DHEA % formed", "setting": "[3]; Control: neat, sealed vial, 25° C., first time column (head empty, time 0)", "value": 2.774, "unit": "%"}
    ]}
  ]
}
